Where “and” joins values, the source holds several entries; their conditions need not be identical. Identical values can stand only once. Counter-ions that a name gives are not always drawn.
Assays:
[1] = tested on: children and young adults with Dravet syndrome; assay: Study 1: safety (TEAEs, body weight, echocardiography); type: in vivo, Human
Method: The incidence of treatment-emergent adverse events (TEAEs) was monitored continuously during the study. TEAEs were graded by the investigator as mild, moderate, or severe, and related or not related to study medication. Vital signs, height, weight, and clinical laboratory evaluations were performed at each study visit. The Behavior Rating Inventory of Executive Function (BRIEF) was administered at baseline and periodically during the treatment period to assess for any effects of treatment on cognitive function. Doppler echocardiography (ECHOs) and 12-lead electrocardiography (ECGs) were performed during the screening/baseline period, after 6 weeks of treatment, and after 14 weeks of treatment at the end of the maintenance period. The ECGs and ECHOs were evaluated by two independent cardiologists who were blind to treatment randomization. In the event of disagreement, a third cardiologist arbitrated the decision.
All subjects received ZX008 or matching placebo for up to approximately 16 weeks (Titration Period=2 weeks; Maintenance Period=12 weeks; Taper/Transition Period=2 weeks) in Study 1. After completion of the Maintenance Period, eligible subjects could enroll in an open-label extension (OLE) study, after completion of the transition. […] Follow-up cardiovascular safety assessments, including ECG and ECHO, were performed 3 to 6 months following the last dose of study medication.
In the ZX008 0.2 mg/kg/day group, 5 (12.8%) subjects had weight losses ranging from 8.4% to 21.9% of body weight; the one subject with a 21.9% loss was under the guidance of a nutritionist to manage their weight during the trial, and another subject with a 15.3% loss had been diagnosed with diabetes mellitus shortly before enrolling in the study and was also being managed to lose weight. One subject in the 0.2 mg/kg/day group gained 10.3% body weight during the study. In the ZX008 0.8 mg/kg/day group, 8 (20.0%) subjects lost weight, ranging from 7.2% to 11.4% of baseline body weight. One subject in the ZX008 0.8 mg/kg/day group discontinued citing decreased appetite and weight loss, among other events. The weight loss, however, amounted to less than 1 kg. There were no deaths in the study.

[2] = tested on: children and young adults with Dravet syndrome; assay: Study 1: Clinical Global Impression of Improvement (CGI-I); type: in vivo, Human
Method: CGI-S and CGI-I ratings were made by clinical investigators and parent/caregivers in a series of phase III trials of fenfluramine. CGI changes were measured in two randomized, controlled trials with results reported herein. Study 1 was conducted as described in Example 1 and CGI ratings were made according to a set schedule of visits made to the clinic. Tables of results and bar graphs of the statistical analyses of CGI ratings for Study 1 at visit twelve (day 113) are provided in FIGS. 1-4. […] Similar results were obtained with investigator CGI-I rating.
In Study 1, subjects were assessed using Clinical Global Impression (CGI), allowing the parent/caregiver and principal investigator to assess improvement, as well as the Quality of Life in Childhood Epilepsy (QOLCE) Scale and the Pediatric Quality of Life Inventory (PedsQL) to measure changes in the quality of life of the subject. Comparisons between treatment groups were made using Wilcoxon rank sum tests.
The CGI scale measures the change in the subject's clinical status from a specific point in time, i.e., the Baseline Period (and also referred to as the CGI-S, an initial ranking of severity). The CGI rating scale permits a global evaluation of the subject's improvement over time.

CCNC(C)Cc1cccc(C(F)(F)F)c1 (stereo not drawn) [ZX008, fenfluramine hydrochloride]
Deaths in the study [1]: no deaths
Tolerability [1]: generally well tolerated
At least one echocardiographic finding with trace mitral and/or trace aortic regurgitation, % of subjects ([1]; 0.2 mg/kg/day): 17.9%
At least one echocardiographic finding with trace mitral and/or trace aortic regurgitation, number of subjects ([1]; 0.2 mg/kg/day): 7
Body weight gained during the study, one subject ([1]; 0.2 mg/kg/day): 10.3%
Serious adverse events, % of subjects ([1]; 0.2 mg/kg/day): 10.3%
Serious adverse events, number of subjects ([1]; 0.2 mg/kg/day): 4
Status epilepticus (serious adverse event), % of subjects ([1]; 0.2 mg/kg/day): 2.6%
Status epilepticus (serious adverse event), number of subjects ([1]; 0.2 mg/kg/day): 1
Subjects with weight loss (change from baseline ≥7%), number ([1]; 0.2 mg/kg/day): 5
TEAEs mild to moderate in severity, % of patients among those with TEAEs ([1]; 0.2 mg/kg/day): 94.6%
TEAEs mild to moderate in severity, number of patients among those with TEAEs ([1]; 0.2 mg/kg/day): 35
Subjects with weight loss (change from baseline ≥7%), % ([1]; 0.2 mg/kg/day, hydrochloride): 12.8% and 13%
At least one echocardiographic finding with trace mitral and/or trace aortic regurgitation, % of subjects ([1]; 0.8 mg/kg/day): 22.5%
At least one echocardiographic finding with trace mitral and/or trace aortic regurgitation, number of subjects ([1]; 0.8 mg/kg/day): 9
Serious adverse events, % of subjects ([1]; 0.8 mg/kg/day): 12.5%
Serious adverse events, number of subjects ([1]; 0.8 mg/kg/day): 5
Status epilepticus (serious adverse event), % of subjects ([1]; 0.8 mg/kg/day): 5%
Status epilepticus (serious adverse event), number of subjects ([1]; 0.8 mg/kg/day): 2
Subjects with weight loss (change from baseline ≥7%), number ([1]; 0.8 mg/kg/day): 8
TEAEs mild to moderate in severity, % of patients among those with TEAEs ([1]; 0.8 mg/kg/day): 92.1%
TEAEs mild to moderate in severity, number of patients among those with TEAEs ([1]; 0.8 mg/kg/day): 35
Subjects with weight loss (change from baseline ≥7%), % ([1]; 0.8 mg/kg/day, hydrochloride): 20%
Most common non-cardiovascular adverse events ([1]; ZX008-treated patients): decreased appetite, diarrhea, nasopharyngitis, lethargy, somnolence, and pyrexia
TEAEs reported, % of subjects ([1]; each ZX008 dose group (0.2 and 0.8 mg/kg/day)): 95%
Cases of cardiac valvulopathy or pulmonary hypertension ([1]; ≤30 mg/day, 14-week treatment and 2-week transition, hydrochloride): no cases
CGI-I Investigator rating 'very much improved' or 'much improved', % ([2]; 0.2 mg/kg/day, n = 39): (41.0%)
CGI-I Parent/caregiver rating 'very much improved' or 'much improved', % ([2]; 0.2 mg/kg/day, n = 39): (41.0%)
CGI-I Investigator rating 'very much improved' or 'much improved', % ([2]; 0.8 mg/kg/day, n = 40): (55.0%)
CGI-I Parent/caregiver rating 'very much improved' or 'much improved', % ([2]; 0.8 mg/kg/day, n = 40): (55.0%)

From patent publication US20200306210A1 (ZOGENIX INTERNATIONAL LIMITED, priority 2017, published 2020)
